From US7323465B2, “Alkansulfonamides as endothelin antagonists” (Actelion Pharmaceuticals Ltd., priority 2002, dated 2008)

Tests used:
[1] = target: T1, human recombinant ETA receptors (Homo sapiens, UniProt P25101); test: Inhibition of [125I]ET-1 binding to membranes from CHO cells carrying human ETA receptors
T1 construct: expressed in transfected cells; host or cells: CHO cells (microsomal membranes)
T1 sequence (P25101 21-427): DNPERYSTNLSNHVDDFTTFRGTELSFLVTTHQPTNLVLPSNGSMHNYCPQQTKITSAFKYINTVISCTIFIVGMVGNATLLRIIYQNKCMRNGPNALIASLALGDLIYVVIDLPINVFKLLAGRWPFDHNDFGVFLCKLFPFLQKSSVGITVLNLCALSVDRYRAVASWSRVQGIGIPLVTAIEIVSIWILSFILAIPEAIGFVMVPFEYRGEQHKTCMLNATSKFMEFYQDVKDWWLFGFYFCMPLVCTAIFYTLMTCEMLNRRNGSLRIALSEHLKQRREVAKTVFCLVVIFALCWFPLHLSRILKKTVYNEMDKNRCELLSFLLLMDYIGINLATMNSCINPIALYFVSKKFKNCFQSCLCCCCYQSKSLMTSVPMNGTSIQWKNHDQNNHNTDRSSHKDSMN
Experimental: (§1) 1) Inhibition of Endothelin Binding to Membranes from CHO Cells Carrying Human ET Receptors:
(§2) For competition binding studies, membranes of CHO cells expressing human recombinant ETA or ETB receptors were used.
(§3) The assay was performed in 200 uL 50 mM Tris/HCl buffer, pH 7.4, including 25 mM MnCl2, 1 mM EDTA and 0.5% (w/v) BSA in polypropylene microtiter plates. […] After 2 h, the membranes were filtered on filterplates containing GF/C filters (Unifilterplates from Canberra Packard S.A. Zürich, Switzerland). To each well, 50 uL of scintillation cocktail was added (MicroScint 20, Canberra Packard S.A. Zürich, Switzerland) and the filter plates counted in a microplate counter (TopCount, Canberra Packard S.A. Zürich, Switzerland).
(§4) All the test compounds were dissolved, diluted and added in DMSO.

[2] = target: T2, human recombinant ETB receptors (Homo sapiens, UniProt P24530); test: Inhibition of [125I]ET-1 binding to membranes from CHO cells carrying human ETB receptors
T2 construct: expressed in transfected cells; host or cells: CHO cells (microsomal membranes)
T2 sequence (P24530 27-442): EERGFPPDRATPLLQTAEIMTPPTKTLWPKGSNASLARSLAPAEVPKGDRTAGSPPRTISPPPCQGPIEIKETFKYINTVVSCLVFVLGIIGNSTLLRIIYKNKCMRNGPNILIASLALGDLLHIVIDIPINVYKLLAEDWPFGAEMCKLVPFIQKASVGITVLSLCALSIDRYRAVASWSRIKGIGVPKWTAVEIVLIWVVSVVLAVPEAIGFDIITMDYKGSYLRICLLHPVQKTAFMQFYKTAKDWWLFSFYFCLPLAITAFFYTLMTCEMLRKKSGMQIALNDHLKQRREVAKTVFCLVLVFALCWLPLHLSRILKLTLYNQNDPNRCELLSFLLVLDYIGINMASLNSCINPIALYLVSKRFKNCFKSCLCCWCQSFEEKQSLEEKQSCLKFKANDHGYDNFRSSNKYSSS
Experimental: as §1, §2, §3, §4
Note: 2.5% DMSO.

Structure (SMILES)	IC50 [1]	IC50 [2]
CCS(=O)(=O)Nc1ncnc(OCCOc2ncc(Br)cn2)c1-c1ccc(C)cc1 [Example 1, ethanesulfonic acid {6-[2-(5-bromo-pyrimidin-2-yloxy)-ethoxy]-5-p-tolyl-pyrimidin-4-yl}-amide]	3.96 nM	> 1000 nM
CCS(=O)(=O)Nc1ncnc(OCCOc2ncc(SC)cn2)c1-c1ccc(C)cc1 [Example 2, ethanesulfonic acid {6-[2-(5-methylsulfanyl-pyrimidin-2-yloxy)-ethoxy]-5-p-tolyl-pyrimidin-4-yl}-amide]	5.99 nM	989 nM
CCS(=O)(=O)Nc1ncnc(OCCOc2ncc(OC)cn2)c1-c1ccc(C)cc1 [Example 3, ethanesulfonic acid {6-[2-(5-methoxy-pyrimidin-2-yloxy)-ethoxy]-5-p-tolyl-pyrimidin-4-yl}-amide]	38.2 nM	> 1000 nM
CCCS(=O)(=O)Nc1ncnc(OCCOc2ncc(Br)cn2)c1-c1ccc(C)cc1 [Example 4, n-propanesulfonic acid {6-[2-(5-bromo-pyrimidin-2-yloxy)-ethoxy]-5-p-tolyl-pyrimidin-4-yl}-amide]	6.34 nM	> 1000 nM
CCCS(=O)(=O)Nc1ncnc(OCCOc2ncc(SC)cn2)c1-c1ccc(C)cc1 [Example 5, propane-1-sulfonic acid {6-[2-(5-methylsulfanyl-pyrimidin-2-yloxy)-ethoxy]-5-p-tolyo-pyrimidin-4-yl}-amide]	3.6 nM	> 1000 nM
CCCS(=O)(=O)Nc1ncnc(OCCOc2ncc(OC)cn2)c1-c1ccc(C)cc1 [Example 6, propane-1-sulfonic acid {6-[2-(5-methoxy-pyrimidin-2-yloxy)-ethoxy]-5-p-tolyl-pyrimidin-4-yl}-amide]	17.1 nM	> 1000 nM
CCCS(=O)(=O)Nc1nc(-c2ncccn2)nc(OCCOc2ncc(Br)cn2)c1Oc1ccccc1OC [Example 8]	11 nM	–
CCCS(=O)(=O)Nc1nc(-c2ncccn2)nc(OCCOc2ncc(OC)cn2)c1Oc1ccccc1OC [Example 10, n-propanesulfonic acid [6-[2-(5-methoxy-pyrimidin-2-yloxy)-ethoxy]-5-(2-methoxy-phenoxy)-[2,2′]bipyrimidinyl-4-yl]-amide]	42.6 nM	689 nM
CCCCS(=O)(=O)Nc1nc(-c2ncccn2)nc(OCCOc2ncc(Br)cn2)c1Oc1ccccc1OC [Example 25]	6.5 nM	–
CCCCS(=O)(=O)Nc1nc(-c2ncccn2)nc(OCCOc2ncc(OC)cn2)c1Oc1ccccc1OC [Example 26]	19 nM	881 nM
CCCCS(=O)(=O)Nc1nc(-c2ncccn2)nc(OCCOc2ncc(SC)cn2)c1Oc1ccccc1OC [Example 27]	2.8 nM	153 nM
CCCCS(=O)(=O)Nc1ncnc(OCCOc2ncc(OC)cn2)c1Oc1cccc(OC)c1 [Example 29]	8.4 nM	402 nM
Cc1ccc(-c2c(NS(C)(=O)=O)ncnc2OCCOc2ncc(Br)cn2)cc1 [Example 47]	2.9 nM	> 1000 nM
CSc1cnc(OCCOc2ncnc(NS(C)(=O)=O)c2-c2ccc(C)cc2)nc1 [Example 49]	2.3 nM	> 1000 nM
Cc1ccc(-c2c(NS(C)(=O)=O)ncnc2OCCCOc2ncc(Br)cn2)cc1 [Example 50]	397 nM	> 1000 nM
CS(=O)(=O)Nc1ncnc(OCCOc2ncc(Br)cn2)c1-c1ccc(Br)cc1 [Example 53]	1.1 nM	824 nM
CSc1cnc(OCCOc2ncnc(NS(C)(=O)=O)c2-c2ccc(Br)cc2)nc1 [Example 55]	1.3 nM	454 nM
CS(=O)(=O)Nc1ncnc(OCCOc2ncc(C3CC3)cn2)c1-c1ccc(Br)cc1 [Example 57]	6.9 nM	> 1000 nM
CCCS(=O)(=O)Nc1ncnc(OCCOc2ncc(Br)cn2)c1-c1ccc(Br)cc1 [Example 70]	0.46 nM	–
CCCCS(=O)(=O)Nc1ncnc(OCCOc2ncc(Br)cn2)c1-c1ccc(Br)cc1 [Example 81]	0.54 nM	–

Further lines, results first:

IC50 [1]	IC50 [2]	Structure (SMILES)
16.3 nM	–	CCS(=O)(=O)Nc1nc(-c2ncccn2)nc(OCCOc2ncc(Br)cn2)c1Oc1ccccc1OC [Example 7, ethanesulfonic acid [6-[2-(5-bromo-pyrimidin-2-yloxy)-ethoxy]-5-(2-methoxy-phenoxy)-[2,2′]bipyrimidinyl-4-yl]-amide]
5.2 nM	187 nM	CCCS(=O)(=O)Nc1nc(-c2ncccn2)nc(OCCOc2ncc(SC)cn2)c1Oc1ccccc1OC [Example 9, n-propanesulfonic acid [6-[2-(5-methylsulfanyl-pyrimidin-2-yloxy)-ethoxy]-5-(2-methoxy-phenoxy)-[2,2′]bipyrimidinyl-4-yl]-amide]
5.3 nM	59 nM	CCS(=O)(=O)Nc1nc(-c2ncccn2)nc(OCCOc2ncc(SC)cn2)c1Oc1ccccc1OC [Example 11, ethanesulfonic acid [6-[2-(5-methylsulfanyl-pyrimidin-2-yloxy)-ethoxy]-5-(2-methoxy-phenoxy)-[2,2′]bipyrimidinyl-4-yl]-amide]
59 nM	469 nM	CCS(=O)(=O)Nc1nc(-c2ncccn2)nc(OCCOc2ncc(OC)cn2)c1Oc1ccccc1OC [Example 12, ethanesulfonic acid [6-[2-(5-methoxy-pyrimidin-2-yloxy)-ethoxy]-5-(2-methoxy-phenoxy)-[2,2′]bipyrimidinyl-4-yl]-amide]
27 nM	–	COc1ccccc1Oc1c(NS(C)(=O)=O)nc(-c2ncccn2)nc1OCCOc1ncc(Br)cn1 [Example 14]
125 nM	729 nM	COc1cnc(OCCOc2nc(-c3ncccn3)nc(NS(C)(=O)=O)c2Oc2ccccc2OC)nc1 [Example 15]
12 nM	79 nM	COc1ccccc1Oc1c(NS(C)(=O)=O)nc(-c2ncccn2)nc1OCCOc1ncc(SC)cn1 [Example 16]
33 nM	599 nM	COc1ccccc1Oc1c(NS(C)(=O)=O)ncnc1OCCOc1ncc(Br)cn1 [Example 17]
205 nM	841 nM	COc1cnc(OCCOc2ncnc(NS(C)(=O)=O)c2Oc2ccccc2OC)nc1 [Example 18]
22 nM	155 nM	COc1ccccc1Oc1c(NS(C)(=O)=O)ncnc1OCCOc1ncc(SC)cn1 [Example 19]
81 nM	> 1000 nM	COc1ccccc1Oc1c(NS(C)(=O)=O)ncnc1OCCOc1ncc(S(C)(=O)=O)cn1 [Example 20]
2.9 nM	595 nM	CCCCS(=O)(=O)Nc1ncnc(OCCOc2ncc(Br)cn2)c1Oc1cccc(OC)c1 [Example 28]
2.3 nM	111 nM	CCCCS(=O)(=O)Nc1ncnc(OCCOc2ncc(SC)cn2)c1Oc1cccc(OC)c1 [Example 30]
1.8 nM	180 nM	CCCCS(=O)(=O)Nc1ncnc(OCCOc2ncc(S(C)(=O)=O)cn2)c1Oc1cccc(OC)c1 [Example 31]
11 nM	> 1000 nM	CCCS(=O)(=O)Nc1ncnc(OCCOc2ncc(Br)cn2)c1Oc1ccccc1OC [Example 32]
40 nM	> 1000 nM	CCCS(=O)(=O)Nc1ncnc(OCCOc2ncc(OC)cn2)c1Oc1ccccc1OC [Example 33]
6.5 nM	159 nM	CCCS(=O)(=O)Nc1ncnc(OCCOc2ncc(SC)cn2)c1Oc1ccccc1OC [Example 34]
11 nM	> 1000 nM	CCCS(=O)(=O)Nc1ncnc(OCCOc2ncc(S(C)(=O)=O)cn2)c1Oc1ccccc1OC [Example 35]
19 nM	636 nM	CCS(=O)(=O)Nc1ncnc(OCCOc2ncc(Br)cn2)c1Oc1ccccc1OC [Example 40]
28 nM	678 nM	CCS(=O)(=O)Nc1ncnc(OCCOc2ncc(OC)cn2)c1Oc1ccccc1OC [Example 41]
5.7 nM	105 nM	CCS(=O)(=O)Nc1ncnc(OCCOc2ncc(SC)cn2)c1Oc1ccccc1OC [Example 42]
23 nM	> 1000 nM	COc1cnc(OCCOc2ncnc(NS(C)(=O)=O)c2-c2ccc(C)cc2)nc1 [Example 48]
18 nM	> 1000 nM	COc1cnc(OCCOc2ncnc(NS(C)(=O)=O)c2-c2ccc(Br)cc2)nc1 [Example 54]
1.6 nM	359 nM	CS(=O)(=O)Nc1ncnc(OCCOc2ncc(S(C)(=O)=O)cn2)c1-c1ccc(Br)cc1 [Example 56]
